Experimental findings from patent US10053428B2, “5-aminotetrahydroquinoline-2-carboxylic acids and their use” (BAYER PHARMA AKTIENGESELLSCHAFT, priority 2012, dated 2018) are described below.

In this assay the test system is recombinant guanylate cyclase reporter cell line. The assay can be described thus: sGC-activating activity in the CHO reporter cell in vitro. The settings on record: read-out: MEC (minimum effective concentration). It counts as cell-based. As for the experimental part: B-2. Action at a Recombinant Guanylate Cyclase Reporter Cell Line
The cellular action of the compounds according to the invention is determined at a recombinant guanylate cyclase reporter cell line, as described in F. Wunder et al., Anal. Biochem. 32, 104-112 (2005).
Regarding `CC(C)(C)c1ccc(COc2ccccc2CCN(CCc2ccc(C(=O)O)cc2)C2CCCc3nc(C(=O)O)ccc32)cc1` (racemic) [Example 12, rac-5-{(2-{2-[(4-tert-Butylbenzyl)oxy]phenyl}ethyl)[2-(4-carboxyphenyl)ethyl]amino}-5,6,7,8-tetrahydroquinoline-2-carboxylic acid], the minimal effective concentration was 0.3 nM.
For the compound `CC(C)(C)c1ccc(COc2ccccc2CCN(CCCCC(=O)O)C2CCCc3nc(C(=O)O)ccc32)cc1` (single isomer, unassigned) [Example 3], the minimal effective concentration amounted to 100 nM.
Take `O=C(O)CCCCN(CCc1ccccc1OCc1ccc(-c2ccc(C(F)(F)F)cc2)cc1Cl)C1CCCc2nc(C(=O)O)ccc21` (single isomer, unassigned) [Example 7]: the minimal effective concentration was determined as 0.3 nM.
For the compound `O=C(O)CCCCN(CCc1ccccc1OCc1ccc(-c2ccc(C(F)(F)F)cc2)cc1Cl)C1CCCc2nc(C(=O)O)ccc21` (single isomer, unassigned) [Example 8], the minimal effective concentration came to 3 nM.
On to `O=C(O)CCCCN(CCc1ccccc1OCCCCCc1ccccc1)C1CCCc2nc(C(=O)O)ccc21` (single isomer, unassigned) [Example 9], for which the minimal effective concentration was 10 nM.
Turning to `O=C(O)CCCCN(CCc1ccccc1OCCCCCc1ccccc1)C1CCCc2nc(C(=O)O)ccc21` (single isomer, unassigned) [Example 10], the minimal effective concentration was 300 nM.
As for `O=C(O)CCCCN(CCc1ccccc1OCc1ccc(-c2ccc(C(F)(F)F)cc2)cc1)C1CCCc2nc(C(=O)O)ccc21` (single isomer, unassigned) [Example 17], the minimal effective concentration was 1000 nM.
As to `Cc1ccc2oc(-c3ccc(COc4ccccc4CCN(CCc4ccc(C(=O)O)cc4)C4CCCc5nc(C(=O)O)ccc54)cc3)nc2c1` (single isomer, unassigned) [Example 21], the minimal effective concentration turned out to be 100 nM.
Turning to `Cc1ccc2oc(-c3ccc(COc4ccccc4CCN(CCc4ccc(C(=O)O)cc4)C4CCCc5nc(C(=O)O)ccc54)cc3)nc2c1` (single isomer, unassigned) [Example 22], the minimal effective concentration is given as 1 nM.
With `O=C(O)c1ccc(CCN(CCc2ccccc2OCc2ccc(-c3nc4cc(C(F)(F)F)ccc4o3)cc2)C2CCCc3nc(C(=O)O)ccc32)cc1` (single isomer, unassigned) [Example 24], the minimal effective concentration was found to be 1 nM.
With `O=C(O)CCCCN(CCc1ccccc1OCc1ccc(-c2nc3cc(C(F)(F)F)ccc3o2)cc1)C1CCCc2nc(C(=O)O)ccc21` (single isomer, unassigned) [Example 25], the minimal effective concentration turned out to be 0.3 nM.
For `O=C(O)c1ccc(CCN(CCc2ccccc2OCc2ccc(-c3nc4ccccc4o3)cc2)C2CCCc3nc(C(=O)O)ccc32)cc1` (single isomer, unassigned) [Example 26], the minimal effective concentration stood at 1 nM.
Under `O=C(O)c1ccc(CCN(CCc2ccccc2OCc2ccc(-c3nc4cc(OC(F)(F)F)ccc4o3)cc2)C2CCCc3nc(C(=O)O)ccc32)cc1` (single isomer, unassigned) [Example 29] stands 3 nM; under `N#Cc1ccc2oc(-c3ccc(COc4ccccc4CCN(CCc4ccc(C(=O)O)cc4)C4CCCc5nc(C(=O)O)ccc54)cc3)nc2c1` (single isomer, unassigned) [Example 30], 1 nM; under `N#Cc1ccc2oc(-c3ccc(COc4ccccc4CCN(CCCCC(=O)O)C4CCCc5nc(C(=O)O)ccc54)cc3)nc2c1` (single isomer, unassigned) [Example 31], 10 nM.
Under `O=C(O)CCCCN(CCc1ccccc1OCc1ccc(-c2nc3cc(Cl)ccc3o2)cc1)C1CCCc2nc(C(=O)O)ccc21` (single isomer, unassigned) [Example 32] stands 0.3 nM; under `O=C(O)c1ccc(CCN(CCc2cc(F)ccc2OCc2ccc(-c3ccc(C(F)(F)F)cc3)cc2Cl)C2CCCc3nc(C(=O)O)ccc32)cc1` (single isomer, unassigned) [Example 33], 10 nM; under `O=C(O)c1ccc(CCN(CCc2cc(F)ccc2OCc2ccc(-c3ccc(C(F)(F)F)cc3)cc2Cl)C2CCCc3nc(C(=O)O)ccc32)cc1` (single isomer, unassigned) [Example 34], 1 nM.
As for `O=C(O)c1ccc(CCN(CCc2cc(F)ccc2OCc2ccc(-c3nc4cc(Cl)ccc4o3)cc2)C2CCCc3nc(C(=O)O)ccc32)cc1` (single isomer, unassigned) [Example 35], the minimal effective concentration stood at 3 nM.
With `O=C(O)CCCCN(CCc1cc(F)ccc1OCc1ccc(-c2nc3cc(Cl)ccc3o2)cc1)C1CCCc2nc(C(=O)O)ccc21` (single isomer, unassigned) [Example 36], the minimal effective concentration is 30 nM.
As for `O=C(O)CCCCN(CCc1cc(F)ccc1OCc1ccc(-c2nc3cc(Cl)ccc3o2)cc1)C1CCCc2nc(C(=O)O)ccc21` (single isomer, unassigned) [Example 37], the minimal effective concentration was 1 nM.
On to `O=C(O)c1ccc(CCN(CCc2cc(F)ccc2OCc2ccc(CCc3ccc(F)cc3)cc2)C2CCCc3nc(C(=O)O)ccc32)cc1` (single isomer, unassigned) [Example 42], for which the minimal effective concentration is listed as 3 nM.
The figure for `O=C(O)c1ccc(CCN(CCc2ccccc2OCc2ccc(-c3nc4cc(Cl)ccc4o3)cc2)C2CCCc3nc(C(=O)O)ccc32)cc1` (single isomer, unassigned; enantiomer 1) [Example 19, 5-{[2-(4-Carboxyphenyl)ethyl][2-(2-{[4-(5-chloro-1,3-benzoxazol-2-yl)benzyl]oxy}phenyl)ethyl]-amino}-5,6,7,8-tetrahydroquinoline-2-carboxylic acid (Enantiomer 1)] is 30 nM; for `O=C(O)c1ccc(CCN(CCc2ccccc2OCc2ccc(-c3nc4cc(Cl)ccc4o3)cc2)C2CCCc3nc(C(=O)O)ccc32)cc1` (single isomer, unassigned; enantiomer 2) [Example 20, 5-{[2-(4-Carboxyphenyl)ethyl][2-(2-{[4-(5-chloro-1,3-benzoxazol-2-yl)benzyl]oxy}phenyl)ethyl]-amino}-5,6,7,8-tetrahydroquinoline-2-carboxylic acid (Enantiomer 2)] it is 3 nM; for `O=C(O)c1ccc(CCN(CCc2ccccc2OCc2ccc(CCc3ccccc3)cc2)C2CCCc3nc(C(=O)O)ccc32)cc1` (single isomer, unassigned; enantiomer 2) [Example 38, 5-{[2-(4-Carboxyphenyl)ethyl][2-(2-{[4-(2-phenylethyl)benzyl]oxy}phenyl)ethyl]amino}-5,6,7,8-tetrahydroquinoline-2-carboxylic acid (Enantiomer 2)] it is 0.3 nM.
The figure for `O=C(O)c1ccc(CCN(CCc2cc(F)ccc2OCc2ccc(CCc3ccc(F)cc3)cc2)C2CCCc3nc(C(=O)O)ccc32)cc1` (single isomer, unassigned; enantiomer 2) [Example 43, 5-([2-(4-Carboxyphenyl)ethyl]{2-[5-fluoro-2-({4-[2-(4-fluorophenyl)ethyl]benzyl}oxy)phenyl]-ethyl}amino)-5,6,7,8-tetrahydroquinoline-2-carboxylic acid (Enantiomer 2)] is 0.3 nM; for `CCC(=O)N1CCC(c2ccc(COc3ccccc3CCN(CCCCC(=O)O)C3CCCc4nc(C(=O)O)ccc43)cc2)CC1` (stereo not drawn) [Example 5] it is 100 nM.
